Earlier results as cited in US20020144302A1 (priority 1996, published 2002).

Settings: man; daily dose around 200 mg (Vidal, 1996)

**Q.** Which plasma concentration does the source give for `CC(C)OC(=O)C(C)(C)Oc1ccc(C(=O)c2ccc(Cl)cc2)cc1` [fenofibrate] here?
**A.** The plasma concentration was “about 15 μg/ml”.
